CCc1nn(-c2ccc(F)cc2)c2cc(C3=CCC(C(=O)O)CC3)ccc12 (stereo not drawn) [Example 28, 4-(3-ethyl-1-(4-fluorophenyl)-1H-indazol-6-yl)-cyclohex-3-ene-carboxylic acid]
melting point: 214 to 216 °C

CCc1nn(-c2ccc(F)cc2)c2cc(Br)ccc12 [Example 24, 6-Bromo-3-ethyl-1-(4-fluorophenyl)-1H-indazole]
melting point: 72 to 73 °C

CCc1nn(C2CCCC2)c2cc(C3(C#N)CCC(=O)CC3)ccc12 [Example 6, 1-(1-Cyclopentyl-3-ethyl-1H-indazol-6-yl)-4-oxo-cyclohexanecarbonitrile]
melting point: 81 to 89 °C
